The values below come from patent US20240335373A1, “Methods, Systems and Devices for Post-Fabrication Drug Loading” (THE UNIVERSITY OF NORTH CAROLINA AT CHAPEL HILL, priority 2020, published 2024).

SMILES strings stand for the structures. In brackets after ≈: the same amount, converted by molar mass.

Data set [1] is described as follows: Drug loading of post-loaded SIL 30 diffusion blocks, solvent extraction and HPLC. Type of data set: physicochemical. To be noted: for Drug Loading / Wt. % Loading: loaded 5 mg/mL in acetone 24 hr. As for the experimental part: Loading. […] . Solutions of 5 mg/mL of drug in acetone were prepared and validated via HPLC. […] Blocks were then divided into an extraction set and a release set.
Extraction. Drug-loaded blocks were extracted using methods previously described in Section 2.6 using acetone as the extraction solvent. Aliquots were collected and analyzed with HPLC. Weight percent loading was determined as the total drug extracted relative to the mass of the dried blocks.
Block types 6.0 and 7.6 mm (n=8 of each type) were fabricated in SIL 30. A solution containing 8.562 mg/mL of 4′-ethynyl-2-fluoro-2′-deoxyadenosine (EFdA) in acetone was prepared and validated via HPLC. Blocks were batch immersed in post-loading solution for up to 24 hr. Blocks were divided into extraction (n=4) and release (n=4) sets. EFdA was extracted from blocks in acetone as previously described and quantified with HPLC. Release blocks were individually immersed in 60 mL of SVF and placed in an incubator at 37° C. Aliquots and analysis were completed using methods previously described. EFdA was quantified with HPLC, eluting at 5.31 min at 265 nm.
A test part described as a diffusion block with dimensions in X, Y, and Z of 10 mm, 20 mm, and 4 mm, respectively, was primarily used. The general flow of the post-loading process is outlined in FIG. 6A. The initial metrics of dimensional and mass measurements were taken for every block used prior to loading or testing. The block was then immersed in a post-loading solution containing a known concentration of the API for a specified duration. The part was removed and measured for swollen metrics. An aliquot of the post-loading solution following part removal was taken for HPLC analysis. The part was then dried in an oven to remove the post-loading solvent, after which the part was measured for dried metrics. These metrics serve as check points to precisely investigate part behavior throughout the post-loading process, specifically dimensional deformations. Once the part was post-loaded it can either be tested for total drug content via an extraction process, outlined in FIG. 6B, or tested for drug release in simulated vaginal fluid (SVF), outlined in FIG. 6C. Aliquots from both processes are taken for HPLC analysis.
. For these samples, metrics were taken and aliquots were analyzed via HPLC on a C18 column with an optimized method. Extraction aliquots and post-loading solution aliquots were diluted in acetonitrile (ACN) at 1:100 while release samples were analyzed as is. Extracted material includes both the incorporated drug (β-estradiol) as well as leachables/extractables. […] .
Blocks were further assessed by quantifying the extracted drug via HPLC. The total amount of drug extracted, weight percent loading and loading efficiency were calculated and averaged, with variation described by % RSD. Overall, a slight decrease in loading metrics was observed as a function of loading order. However, once averaged out, these values yielded minimal variability. Additionally, values shown are in-line with those obtained during the reproducibility study (Section 3.2) for methanol.
Both pre-loaded and post-loaded blocks were extracted in 20 mL of EtOH for 72 hours. Aliquots were taken and analyzed via HPLC. […] . […] Therefore, for the sake of consistency between previous results and subsequently prepared samples, loading values obtained in Round II were used for all calculations.

A short description of data set [2]: In vivo PK of EFdA-loaded IVRs in macaques. To be noted: female pigtailed macaques, 28 days. The procedure:
Macaque size (25 mm OD) 3D printed IVRs post-loaded with EFdA at 45 mg/IVR or 62 mg/IVR were administered to female pigtailed macaques and plasma, PBMCs, vagina and rectal fluids, and vaginal and rectal biopsies were collected over 28 days and analyzed for EFdA concentration and EFdA-TP (triphosphorilated EFdA, EFdA-TP) in PBMCs.

The next data set is described as follows: physchem. As to conditions: organic solvent or mixture.
Data set [3] is described as follows: In vitro release from drug-loaded blocks or ring sections in simulated vaginal fluid (SVF). In kind it is physicochemical. As to conditions: for Drug Release at Zero Order Mass/Day / Drug Release at Zero Order Percent/Day: linear regression from Day 2.
For data set [4] the following is noted: cited from earlier work.
The mark [5] stands for this setting: SIL 30 block 6.21 ± 0.03 mm, 8.562 mg/mL in acetone.
[6] abbreviates: SIL 30 block 6.21 ± 0.03 mm, 8.562 mg/mL in acetone up to 24 hr.
Where [7] appears, read: SIL 30 block 7.62 ± 0.03 mm, 8.562 mg/mL in acetone.
Setting [8] is: SIL 30 block 7.62 ± 0.03 mm, 8.562 mg/mL in acetone up to 24 hr.
Setting [9] is: SIL 30 block 6.29 ± 0.04 mm, 5 mg/mL in acetone.
Where [10] appears, read: SIL 30 block 6.29 ± 0.04 mm, 5 mg/mL in acetone 24 hr.
Setting [11] is: SIL 30 block 7.81 ± 0.08 mm, 5 mg/mL in acetone.
The mark [12] stands for this setting: SIL 30 block 7.81 ± 0.08 mm, 5 mg/mL in acetone 24 hr.

For the molecule `C#C[C@]1(CO)O[C@@H](n2cnc3c(N)nc(F)nc32)C[C@@H]1O` [EFdA, 4′-ethynyl-2-fluoro-2′-deoxyadenosine], in data set [1] (setting [5]), the “Normalized Delta SSA” value is recorded as −150.63 ± 4.00 and the “Normalized Wt. % by S-SSA” value is reported as 81.4 ± 2.26. Further, in data set [1] (setting [6]), the Drug turned out to be 32.76 ± 0.76 mg and the Loading was found to be 2.41 ± 0.06 Wt. %. Moreover, in data set [1] (setting [7]), the “Normalized Delta SSA” value is listed as −195.95 ± 4.41 and the “Normalized Wt. % by S-SSA” value came out at 99.91 ± 3.67. In addition, in data set [1] (setting [8]), the Drug was 36.91 ± 1.18 mg and the Loading is 2.15 ± 0.07 Wt. %. Also, in data set [2] (45 mg/IVR or 62 mg/IVR), the “EFdA levels in tissue and fluid samples” value is “above the known efficacious levels”; the “EFdA-TP levels in PBMCs” value is “above the known efficacious levels”. Moreover, the PK levels entry in data set [2] (62 mg vs 45 mg EFdA IVR) is listed as “dose dependent”.
The term solubility denotes the dissolved amount per volume that the medium holds. Take `Nc1nc(F)nc2c1ncn2[C@H]1C[C@H](O)[C@@H](CO)O1` [FdA, 2-fluoro-2′-deoxyadenosine]: the “Normalized Delta SSA” value in data set [1] (setting [9]) is −91.19 ± 7.35; in data set [1] (setting [11]) it was −103.29 ± 2.04. The results for the “Normalized Wt. % by S-SSA” value in data set [1] (setting [9]) and in data set [1] (setting [11]) were 47.53 ± 3.10 and 52.82 ± 1.47, respectively. The Drug amounted to 18.95 ± 1.28 mg in data set [1] (setting [10]) and 19.38 ± 0.54 mg in data set [1] (setting [12]). Besides, the Loading in data set [1] (setting [10]) was found to be 1.43 ± 0.10 Wt. %; in data set [1] (setting [12]), 1.19 ± 0.03 Wt. %. For the same molecule, the “Drug Loading” value in data set [1] (block 0.65 ± 0.01 mm) is given as 2.07 ± 0.06 mg; in data set [1] (block 1.51 ± 0.01 mm), 4.07 ± 0.19 mg; in data set [1] (block 2.32 ± 0.02 mm), 6.46 ± 0.17 mg; in data set [1] (block 3.26 ± 0.03 mm) it was 9.68 ± 0.70 mg; in data set [1] (block 4.28 ± 0.04 mm), 14.42 ± 1.21 mg; in data set [1] (block 6.29 ± 0.04 mm), 18.95 ± 1.28 mg. Besides, the “Drug Loading” value in data set [1] (block 7.81 ± 0.08 mm) is 19.38 ± 0.54 mg. Further, the “Wt. % Loading” value in data set [1] (block 0.65 ± 0.01 mm) is on record as 1.71 ± 0.07 Wt. %; in data set [1] (block 1.51 ± 0.01 mm), 1.60 ± 0.07 Wt. %; in data set [1] (block 2.32 ± 0.02 mm) it was 1.46 ± 0.04 Wt. %; in data set [1] (block 3.26 ± 0.03 mm), 1.52 ± 0.11 Wt. %; in data set [1] (block 4.28 ± 0.04 mm), 1.62 ± 0.14 Wt. %; in data set [1] (block 6.29 ± 0.04 mm) it was 1.43 ± 0.10 Wt. %. Further, the “Wt. % Loading” value in data set [1] (block 7.81 ± 0.08 mm) was determined as 1.19 ± 0.03 Wt. %. For the same molecule, the solubility in “physchem” was determined as 9500 µg/mL (≈ 35.3 mM). In addition, the release profile entry in data set [3] (all post-loaded SIL 30 block types, SVF) was “linear and sustained release following an initial burst”. The “Drug Release at Zero Order Mass/Day” value in data set [3] (block 2.32 ± 0.02 mm, SVF) is 406.25 ± 19.80 µg/day; in data set [3] (block 3.26 ± 0.03 mm, SVF) it was 423.43 ± 17.17 µg/day; in data set [3] (block 4.28 ± 0.04 mm, SVF), 450.51 ± 16.45 µg/day; in data set [3] (block 6.29 ± 0.04 mm, SVF) it was 453.56 ± 20.13 µg/day; in data set [3] (block 7.81 ± 0.08 mm, SVF) it was 454.52 ± 20.34 µg/day. For the same molecule, the “Drug Release at Zero Order Percent/Day” value is reported as 6.40 ± 0.20 Percent/Day in data set [3] (block 2.32 ± 0.02 mm, SVF); 3.94 ± 0.06 Percent/Day in data set [3] (block 3.26 ± 0.03 mm, SVF); 2.93 ± 0.03 Percent/Day in data set [3] (block 4.28 ± 0.04 mm, SVF); 2.26 ± 0.01 Percent/Day in data set [3] (block 6.29 ± 0.04 mm, SVF); 1.86 ± 0.04 Percent/Day in data set [3] (block 7.81 ± 0.08 mm, SVF). The “percent burst release normalized by SSA” value in data set [3] (post-loaded SIL 30 blocks, all block distances, normalized by placebo SSA in SVF) is on record as “around 40%”. In addition, the “percent burst release plateau” value in data set [3] (post-loaded SIL 30 blocks, larger block distances, SVF, first 24 hrs) was 22%. In data set [4], the log p was −0.57.
For the molecule `C[C@]12CC[C@@H]3c4ccc(O)cc4CC[C@H]3[C@@H]1CC[C@@H]2O` [β-Estradiol, β-estradiol], the log p in data set [4] was 3.75.
